The term AUC denotes concentration integrated over time. High values mean more exposure, low ones less exposure. As usually defined, the IC50 is the concentration that gives 50% inhibition.

Data set [1] in a line: Pharmacokinetic (PK) tests in rats. In kind it is in vivo. Particulars: for concentration at 8 h: male, Crj:CD(SD), oral, read-out: Plasma concentration C8h; for concentration at 8 h / AUC: rat, plasma; for AUC: po, fasted male Crj:CD(SD) rats; for APTT × 2 maintaining time: 1 mg/kg orally, period when plasma concentration exceeded APTT×2; for C8h/APTT × 2: C8h divided by APTT×2. On the procedure:
The compound of the present invention was administered to fasted male Crj:CD(SD) rats by intravenous injection as a single intravenous dose of 0.1 mg/kg (vehicle: 20% HP-β-CD solution) and by forced oral dosage as a dose of 1 mg/kg per os (vehicle: 0.5% methylcellulose solution). Blood samples were collected from cervical vein into heparinized syringes at 0.08, 0.25, 0.5, 1, 3 or 7 hours after administration by intravenous injection or 0.08, 0.25, 0.5, 1, 2, 4, 6, 8 or 24 hours after oral administration. Plasma was obtained by centrifugation, and plasma was stored at −20° C. until measurement of plasma concentration.
In order to measure the plasma concentration of the compound of the present invention, the plasma sample was subjected to deproteinization by using acetonitrile, was filtrated by using a filter, and thereafter, was diluted with purified water, and then was analyzed by LC/MS/MS. A column for analysis (Shim-pack XR-ODSII, 2.0 mm×75 mm, 2.2 μm) and mobile phases (0.1% formic acid in water and 0.1% formic acid in acetonitrile, flow rate: 0.5 mL/min) were used. The system was used by detection of cations in the Multiple Reaction Monitoring (MRM) mode.
The area under the blood concentration versus time curve (AUC) and the bioavailability (BA) of the compound of the present invention were calculated. In addition, as indices of the maintaining time of the anticoagulation activity in the case of oral administration, AUC/APTT×2, which is obtained by dividing AUC by APTT×2, and C8h/APTT×2, which is obtained by dividing C8h (the plasma concentration at 8 hours after administration) by APTT×2, were calculated.
In addition, the period of time when the compound concentration in plasma of the compound of the present invention exceeded APTT×2 (the APTT×2 maintaining time) was calculated from the change in the compound concentration in plasma in the case when the compound of the present invention was orally administered at a dose of 1 mg/kg. The longer the APTT×2 maintaining time is, the longer the period of time is when the anticoagulation activity is maintained after oral administration.

For the next data set, the system named is standard human plasma. The experiment in a line: Activated partial thromboplastin time (APTT) in standard human plasma. As to conditions: concentration required for doubling the coagulation time vs vehicle (1% DMSO). In kind it is biochemical. On the procedure: Activated partial thromboplastin time (APTT) and prothrombin time (PT) were measured by using a fully automatic device for measuring blood coagulation (CA-1500, Sysmex Corporation). On APTT or PT measurement, standard human plasma for the blood coagulation tests (Siemens Healthcare Diagnostics GmbH) was mixed with a diluted solution of the compound of the present invention, and thereafter, APTT reagent (Siemens Healthcare Diagnostics GmbH) and 0.02 M of calcium chloride or PT reagent (Siemens Healthcare Diagnostics GmbH) were automatically added to the mixture in order to initiate clot formation. The anticoagulation activity (APTT×2 or PT×2) of the compound of the present invention was expressed as a concentration required for doubling the coagulation time in the vehicle (1% DMSO) group. APTT×2 or PT×2 was determined by plotting the concentration of the compound of the present invention against a twofold increase in the coagulation time.

For data set [2], the target named is T1, human blood coagulation factor XIa (Homo sapiens, UniProt P03951).
T1 construct: human blood coagulation factor XIa (Haematologic Technologies Inc.); purchased Haematologic Technologies Inc
The experiment in a line: Inhibitory activity on human blood coagulation factor XIa (chromogenic substrate S-2366). In kind it is biochemical. Particulars: chromogenic substrate S-2366, 37° C.; read-out: FXIa inhibitory activity IC50. The method, then:
Inhibitory activities of the compound of the present invention on human blood coagulation factor XIa, factor VIIa, factor IXa, factor Xa, factor XIIa, plasma kallikrein and thrombin were evaluated. A chromogenic substrate solution was added to each of enzyme solutions, the absorbance at 405 nm was measured continuously at 37° C. for 5 minutes at intervals of 15 seconds, and the decomposition rate of each of substrates (mOD/min) was calculated. The half maximal (50%) inhibitory concentration (IC50) of the compound of the present invention on each of the enzymes was calculated by linear regression by using least-squares method from the concentration of the compound of the present invention which was converted in terms of natural logarithm and the rate of enzyme inhibition calculated according to the following equation.
The rate of enzyme inhibition (%) of the compound of the present invention was calculated by using the following equation: Rate of enzyme inhibition (%)=100×{(Cont(e)−BL(e))−(Comp(e)−BL(e))/(Cont(e)−BL(e))}
Cont (e): Decomposition rate of substrate (mOD/min) when enzyme solution and substrate solution were added to physiological saline containing 5% dimethyl sulfoxide
Comp (e): Decomposition rate of substrate (mOD/min) when enzyme solution and substrate solution were added to physiological saline containing 5% dimethyl sulfoxide and the compound of the present invention
The inhibitory activity on human blood coagulation factor XIa (Haematologic Technologies Inc.) was measured by using the enzyme solution adjusted to 0.1 U/mL by a buffer solution containing 300 mM of NaCl, 10 mM of KCl, 2 mg/mL of PEG 6000 and 100 mM of HEPES-NaOH (pH 7.4) as well as S-2366 (pyroglu-Pro-Arg-pNA, CHROMOGENIX) adjusted to 1 mM by distilled water.

Setting [3] is: rats, 1 mg/kg per os, 8 hours after administration.

Marks after values point to notes of the source that are not given here. Bounds are passed on as bounds.

T1 sequence (P03951 388-625 limits assumed): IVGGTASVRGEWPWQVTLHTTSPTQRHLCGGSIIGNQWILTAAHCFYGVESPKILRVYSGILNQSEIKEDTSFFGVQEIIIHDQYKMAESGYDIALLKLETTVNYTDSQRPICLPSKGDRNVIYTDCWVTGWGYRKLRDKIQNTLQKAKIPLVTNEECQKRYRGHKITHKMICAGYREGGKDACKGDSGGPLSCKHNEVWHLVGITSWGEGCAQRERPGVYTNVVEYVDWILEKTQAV
T1 sequence (P03951 19-387 partner limits assumed): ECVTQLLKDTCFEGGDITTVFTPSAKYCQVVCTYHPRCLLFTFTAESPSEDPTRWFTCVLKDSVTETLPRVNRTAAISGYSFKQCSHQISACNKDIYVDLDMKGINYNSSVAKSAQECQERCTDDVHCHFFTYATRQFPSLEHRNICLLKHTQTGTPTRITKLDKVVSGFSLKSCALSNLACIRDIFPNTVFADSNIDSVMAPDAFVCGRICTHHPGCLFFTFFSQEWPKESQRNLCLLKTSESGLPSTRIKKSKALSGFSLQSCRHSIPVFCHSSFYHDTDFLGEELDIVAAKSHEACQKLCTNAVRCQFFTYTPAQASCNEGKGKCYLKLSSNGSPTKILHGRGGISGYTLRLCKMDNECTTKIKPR

Take `Nc1ccc(-c2cnc([C@@H]3CCc4cc(-c5cc(Cl)ccc5-n5cnnn5)cc(=O)n43)[nH]2)c(F)n1` [Comparative Example 1 (1), (3S)-3-[5-(6-amino-2-fluoro-3-pyridinyl)-1H-imidazol-2-yl]-7-[5-chloro-2-(1H-tetrazol-1-yl)phenyl]-2,3-dihydro-5(1H)-indolizinone]: the concentration at 8 h in data set [1] (setting [3]) came out at 170 nM. Moreover, the AUC in data set [1] (1 mg/kg per os) turned out to be 4.7 µM·h. Further, in data set [1] (rats), the “APTT × 2 maintaining time” value is 0* h. For the same compound, in data set [1] (rats, 1 mg/kg per os), the “C8h/APTT × 2” value was determined as 0.15. In addition, the “APTT ×” value in the data set on standard human plasma amounted to 1.2 µM.
Consider `Nc1ccc(-c2[nH]c([C@@H]3CCc4cc(-c5cc(Cl)ccc5-n5cnnn5)cc(=O)n43)nc2Cl)c(F)n1` [Comparative Example 1 (2), (3S)-3-[5-(6-amino-2-fluoro-3-pyridinyl)-4-chloro-1H-imidazol-2-yl]-7-[5-chloro-2-(1H-tetrazol-1-yl)phenyl]-2,3-dihydro-5(1H)-indolizinone], for which, in data set [1] (setting [3]), the concentration at 8 h is 26 nM. In addition, the AUC in data set [1] (1 mg/kg per os) was 0.69 µM·h. The “APTT × 2 maintaining time” value in data set [1] (rats) is 0* h. The “C8h/APTT × 2” value in data set [1] (rats, 1 mg/kg per os) amounted to 0.014. In data set [2], the IC50 worked out at 4.8 nM. For the same compound, in the data set on standard human plasma, the “APTT ×” value was 1.8 µM.
Take `Nc1ccc(-c2[nH]c([C@@H]3CCc4cc(-c5cc(Cl)ccc5-n5cnnn5)cc(=O)n43)nc2F)cn1` [Comparative Example 1 (3), (3S)-3-[5-(6-amino-3-pyridinyl)-4-fluoro-1H-imidazol-2-yl]-7-[5-chloro-2-(1H-tetrazol-1-yl)phenyl]-2,3-dihydro-5(1H)-indolizinone]: in data set [1] (setting [3]), the concentration at 8 h came to 81 nM. The compound further had an AUC in data set [1] (1 mg/kg per os) of 1.7 µM·h. Besides, the “APTT × 2 maintaining time” value in data set [1] (rats) is listed as below 1 h. In data set [1] (rats, 1 mg/kg per os), the “C8h/APTT × 2” value was 0.15. In data set [2], the IC50 was found to be 1.4 nM. Also, in the data set on standard human plasma, the “APTT ×” value turned out to be 0.55 µM.
`Nc1ccc(-c2ncc([C@@H]3CCc4cc(-c5cc(Cl)ccc5-n5cnnn5)cc(=O)n43)[nH]2)c(F)n1` [Comparative Example 2 (1), (3S)-3-[2-(6-amino-2-fluoro-3-pyridinyl)-1H-imidazol-5-yl]-7-[5-chloro-2-(1H-tetrazol-1-yl)phenyl]-2,3-dihydro-5(1H)-indolizinone] had an AUC in data set [1] (1 mg/kg per os) of 0.056 µM·h. Further, the “APTT × 2 maintaining time” value in data set [1] (rats) was 0* h. The “Plasma concentration C8h” value in data set [1] (setting [3]) is listed as “BLQ*”. For the same compound, the IC50 in data set [2] amounted to 19 nM. The “APTT ×” value in the data set with standard human plasma was 4.0 µM.
Regarding `Nc1ccc(-c2nc(Cl)c([C@@H]3CCc4cc(-c5cc(Cl)ccc5-n5cnnn5)cc(=O)n43)[nH]2)c(F)n1` [Comparative Example 2 (3), (3S)-3-[2-(6-amino-2-fluoro-3-pyridinyl)-4-chloro-1H-imidazol-5-yl]-7-[5-chloro-2-(1H-tetrazol-1-yl)phenyl]-2,3-dihydro-5(1H)-indolizinone], the concentration at 8 h in data set [1] (setting [3]) was 1100 nM. In data set [1] (1 mg/kg per os), the AUC is 23 µM·h. Also, the “APTT × 2 maintaining time” value in data set [1] (rats) was below 2 h. For the same compound, in data set [1] (rats, 1 mg/kg per os), the “C8h/APTT × 2” value is recorded as 0.52. Moreover, the IC50 in data set [2] was found to be 4.4 nM. For the same compound, the “APTT ×” value in the data set with standard human plasma came out at 2.1 µM.
For `Nc1ccc(-c2nc(F)c([C@@H]3CCc4cc(-c5cc(Cl)ccc5-n5cnnn5)cc(=O)n43)[nH]2)cn1` [Comparative Example 2 (5), (3S)-3-[2-(6-Amino-3-Pyridinyl)-4-Fluoro-1H-Imidazol-5-Yl]-7-[5-Chloro-2-(1H-Tetrazol-1-Yl)Phenyl]-2,3-Dihydro-5(1H)-Indolizinone], the concentration at 8 h in data set [1] (setting [3]) turned out to be 73 nM. The AUC in data set [1] (1 mg/kg per os) was determined as 1.6 µM·h. Further, the “APTT × 2 maintaining time” value in data set [1] (rats) is given as below 2 h. In addition, the “C8h/APTT × 2” value in data set [1] (rats, 1 mg/kg per os) is given as 0.34. Further, in data set [2], the IC50 turned out to be 1.6 nM. The “APTT ×” value with standard human plasma was determined as 0.21 µM.
On to `COC(=O)Nc1ccc(-c2nc(Cl)c([C@@H]3CCc4nc(-c5cc(Cl)ccc5-n5cnnn5)cc(=O)n43)[nH]2)cc1` [Comparative Example 3 (1), methyl[4-(4-chloro-5-{(6S)-2-[5-chloro-2-(1H-tetrazol-1-yl)phenyl]-4-oxo-4,6,7,8-tetrahydropyrrolo[1,2-a]pyrimidin-6-yl}-1H-imidazol-2-yl)phenyl]carbamate], for which, in data set [1] (setting [3]), the concentration at 8 h was determined as 180 nM. Moreover, the exposure (AUC) in data set [1] (1 mg/kg per os) turned out to be 4.2 µM·h. Also, in data set [1] (rats), the “APTT × 2 maintaining time” value is reported as below 2 h. In data set [1] (rats, 1 mg/kg per os), the “C8h/APTT × 2” value was 0.29. Besides, the IC50 in data set [2] stood at 1.6 nM. The “APTT ×” value in the data set with standard human plasma is 0.64 µM.
Consider `Nc1ccc(-c2[nH]c([C@@H]3CCc4nc(-c5cc(Cl)ccc5-n5cnnn5)cc(=O)n43)nc2Cl)c(F)n1` [Comparative Example 3 (2), (6S)-6-[5-(6-amino-2-fluoro-3-pyridinyl)-4-chloro-1H-imidazol-2-yl]-2-[5-chloro-2-(1H-tetrazol-1-yl)phenyl]-7,8-dihydropyrrolo[1,2-a]pyrimidin-4(6H)-one], for which the concentration at 8 h in data set [1] (setting [3]) was determined as 27 nM. The compound also yielded an AUC in data set [1] (1 mg/kg per os) of 1.4 µM·h. The “APTT × 2 maintaining time” value in data set [1] (rats) is listed as 0* h. Further, in data set [1] (rats, 1 mg/kg per os), the “C8h/APTT × 2” value is 0.0073. For the same compound, the IC50 in data set [2] worked out at 11 nM. For the same compound, in the data set with standard human plasma, the “APTT ×” value turned out to be 3.7 µM.
For the compound `N#Cc1cn(-c2ccc(Cl)cc2-c2cc3n(c(=O)c2)[C@H](c2nc(Cl)c(-c4ccc(N)nc4)[nH]2)CC3)nn1` [Comparative Example 4, 1-(2-{(3S)-3-[5-(6-amino-3-pyridinyl)-4-chloro-1H-imidazol-2-yl]-5-oxo-1,2,3,5-tetrahydro-7-indolizinyl}-4-chlorophenyl)-1H-1,2,3-triazole-4-carbonitrile], in data set [1] (setting [3]), the concentration at 8 h turned out to be 350 nM. The compound further yielded an AUC in data set [1] (1 mg/kg per os) of 8.4 µM·h. For the same compound, the “APTT × 2 maintaining time” value in data set [1] (rats) is given as 0* h. The “C8h/APTT × 2” value in data set [1] (rats, 1 mg/kg per os) was 0.18. Besides, the IC50 in data set [2] was determined as 2.7 nM. The “APTT ×” value in the data set with standard human plasma amounted to 2.0 µM.
Consider `Nc1ccc(-c2[nH]c([C@@H]3CCc4cc(-c5cc(Cl)ccc5-n5cnnn5)cc(=O)n43)nc2F)c(F)n1` [Example 1 (6), (3S)-3-[5-(6-Amino-2-Fluoro-3-Pyridinyl)-4-Fluoro-1H-Imidazol-2-Yl]-7-[5-Chloro-2-(1H-Tetrazol-1-Yl)Phenyl]-2,3-Dihydro-5(1H)-Indolizinone], for which the concentration at 8 h in data set [1] (setting [3]) was determined as 880 nM. The compound also displayed an AUC in data set [1] (1 mg/kg per os) of 33 µM·h. In addition, the “APTT × 2 maintaining time” value in data set [1] (rats) is on record as above 8 h. In data set [1] (rats, 1 mg/kg per os), the “C8h/APTT × 2” value was determined as 1.1. Further, in data set [2], the IC50 turned out to be 1.7 nM. For the same compound, in the data set with standard human plasma, the “APTT ×” value is 0.80 µM.

The values above are taken from US10815233B2, “Dihydroindolizinone derivative” (ONO PHARMACEUTICAL CO., LTD., priority 2014, dated 2020).
